This is an account of results in patent US11312690B2, “Compounds, compositions, methods for treating diseases, and methods for preparing compounds” (UNIVERSITY OF LOUISVILLE RESEARCH FOUNDATION, INC., priority 2015, dated 2022).

One assay deals with MiaPaCa-2. Nature of the assay: Soft agar colony formation. The conditions noted are these: 10 μM; Table 2 experiment, DMSO control 182 ± 7 colonies. On the set-up: Colonies in agar: unit not given here. The class given is cell-based, human. On the procedure: FIG. 1. Effects of some compounds of Formula (I) on RalGEF inhibitor on soft agar growth and normal growth in 2D of pancreatic carcinoma cell lines. In FIGS. 1A and 1B, Panc-1 (ATCC® CRL-1469™) and MiaPaCa-2 (ATCC® CRL-1420™) mutant Ras containing pancreatic tumor cell lines were plated in soft agar in the presence of 10 μM or 0.9 μM of compound I-1 and scored for the formation of colonies. In FIGS. 1C and 1D, compound I-1 was then tested for the ability to inhibit cell growth on the same cell lines under normal 2D growth conditions on plastic. “0” is the carrier. Cells were seeded at the same density and scored after two weeks in culture.
Human pancreatic tumor cell lines MiaPaca-2 and Panc-1 contain activated K-Ras and were used in the initial screen to identify compound I-1. Soft agar colony formation remains an established in vitro assay to predict tumorigenicity and was used to predict tumorigenicity for compound I-1.
Several other compounds were tested against the Mia Paca-2 cell line using the soft agar colony formation in vitro assay in two experiments. For each table, DMSO was used as a control and, as such, within each table, the DMSO colonies are the measure against which each measurement in the corresponding table is compared.
Take `COc1cccc(CNc2nc(CN(C)Cc3cccc(OC)c3)nc3c2c(C)c(C)[s+]3[O-])c1` (stereo not shown) [Compound I-33]: the Colonies in agar was 186 ± 4.
Same read-out and setting: in the case of `COc1cccc(CN(C)Cc2nc(NCc3cccc(F)c3)c3c(C)c(C)sc3n2)c1` [Compound I-28] it was 54 ± 5; in that of `COc1cccc(CNc2nc(CN(C)Cc3cccc(C)c3)nc3sc(C)c(C)c23)c1` [Compound I-29], 0 ± 0.
The same measure, in the same setting: in the case of `COc1cccc(CNc2nc(CN(C)Cc3cccc(OC)c3)nc3sccc23)c1` [Compound I-32] it was 36 ± 1.
`CCc1cc2c(NCc3cccc(OC)c3)nc(CN(C)Cc3cccc(OC)c3)nc2s1` [Compound I-31] returned a Colonies in agar of 14 ± 1.
As for `COc1cccc(CNc2nc(CN(C)Cc3cccc(OC)c3)nc3scc(C)c23)c1` [Compound I-30], the Colonies in agar was found to be 14 ± 2.
Compound `COc1cccc(CN(C)Cc2nc(NCc3cccc(Cl)c3)c3c(C)c(C)sc3n2)c1` [Compound I-27] showed a Colonies in agar of 51 ± 9.
As to `COc1cccc(CN(C)Cc2nc(NC(C)c3ccccc3)c3c(C)c(C)sc3n2)c1` (stereo not shown) [Compound I-26], the Colonies in agar came to 0 ± 0.

The same assay, now with this note: 10 μM; Table 3 experiment, DMSO control 1686 ± 114 colonies.
On to `COc1cccc(CNc2nc(CN(C)Cc3ccccc3)nc3sc(C)c(C)c23)c1` [Compound I-54], for which the Colonies in agar is reported as 410 ± 31.
The compound `COc1cccc(CN(C)Cc2nc(NCc3ccccc3OC)c3c(C)c(C)sc3n2)c1` [Compound I-43] had a Colonies in agar of 272 ± 40.
Regarding `COc1cccc(CNc2nc(CN(C)Cc3cccc(OC)c3)nc3sc4c(c23)CCC4)c1` [Compound I-45], the Colonies in agar is recorded as 361 ± 49.
With `COc1cccc(CN(C)Cc2nc(NCc3ccccc3)c3c(C)c(C)sc3n2)c1` [Compound I-46], the Colonies in agar worked out at 320 ± 22.

In a further assay the target is T1, interaction of K-Ras with RGL2 (Homo sapiens, UniProt O15211).
T1 construct: expressed in transfected cells; host or cells: HEK-293
T1 sequence (O15211 1-777): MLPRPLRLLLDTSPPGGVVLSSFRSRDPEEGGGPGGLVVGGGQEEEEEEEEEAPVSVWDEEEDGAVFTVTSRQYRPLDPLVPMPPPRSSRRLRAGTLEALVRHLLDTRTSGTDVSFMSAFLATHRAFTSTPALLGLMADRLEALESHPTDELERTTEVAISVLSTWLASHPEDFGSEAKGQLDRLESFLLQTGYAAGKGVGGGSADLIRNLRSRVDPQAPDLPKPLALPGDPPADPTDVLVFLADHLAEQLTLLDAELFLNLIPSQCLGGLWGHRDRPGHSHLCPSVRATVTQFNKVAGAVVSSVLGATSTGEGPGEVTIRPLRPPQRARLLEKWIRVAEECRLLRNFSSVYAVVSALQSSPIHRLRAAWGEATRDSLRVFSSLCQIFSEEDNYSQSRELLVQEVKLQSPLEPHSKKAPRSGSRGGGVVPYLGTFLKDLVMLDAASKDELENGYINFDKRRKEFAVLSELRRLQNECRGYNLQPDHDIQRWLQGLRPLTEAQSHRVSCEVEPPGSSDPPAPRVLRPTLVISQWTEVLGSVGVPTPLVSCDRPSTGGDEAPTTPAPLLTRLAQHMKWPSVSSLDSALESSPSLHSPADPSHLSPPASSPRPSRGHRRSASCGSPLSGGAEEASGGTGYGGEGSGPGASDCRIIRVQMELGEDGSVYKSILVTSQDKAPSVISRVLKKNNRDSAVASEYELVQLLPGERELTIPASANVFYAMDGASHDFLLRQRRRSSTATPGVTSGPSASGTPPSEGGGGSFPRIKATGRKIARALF
As to the kind of experiment: Ras/RalGEF binding, immunoprecipitation and immunoblot from co-transfected HEK-293 cells. The conditions noted are these: 10 μM, HA K-Ras 12v and GFP-RGL2, IP/IB, FIG. 3B.
Take `COc1cccc(CNc2nc(CN(C)Cc3cccc(OC)c3)nc3ccccc23)c1` [Compound I-2, N-(3-Methoxybenzyl)-2-(((3-methoxybenzyl)(methyl)amino)methyl)quinazolin-4-amine]: the “inhibition of RGL2 (Ras/RGL2 interaction)” value was “found to inhibit RGL2”.
